Six compounds from US20080255155A1, “KINASE INHIBITORS AND USES THEREOF” (priority 2006, published 2008) can be followed below.

Test [1] deals with T1, recombinant human c-Met/HGF receptor (Homo sapiens, UniProt P08581).
T1 construct: His tag; made in house; host or cells: Hi-5 cells (Trichoplusia ni), recombinant baculovirus
Briefly: In vitro receptor tyrosine kinase assay, c-Met (DELFIA). As to conditions: ATP 10 uM, enzyme 25 nM; read-out: Potency in enzyme assays Cmet. The class given is biochemical. The text has this: (§1) These tests measure the ability of compounds to inhibit the enzymatic activity of recombinant human c-Met/HGF receptor and VEGF receptor enzymatic activity.
A 1.3-kb cDNA corresponding to the intracellular domain of c-Met or c-Met IC (Genbank accession number NP000236-1 amino acid […]) is cloned into the BamHI/XhoI sites of the pBlueBacHis2A vector (Invitrogen) for the production of a histidine-tagged version of that enzyme. This construct is used to generate recombinant baculovirus using the Bac-N-Blue™ system according to the manufacturer's instructions (Invitrogen).
The c-Met IC protein is expressed in Hi-5 cells (Trichoplusia Ni) upon infection with recombinant baculovirus construct. Briefly, Hi-5 cells grown in suspension and maintained in serum-free medium (Sf900 II supplemented with gentamycin) at a cell density of about 2×10^6 cells/ml are infected with the above-mentioned viruses at a multiplicity of infection (MOI) of 0.2 during 72 hours at 27° C. with agitation at 120 rpm on a rotary shaker. Infected cells are harvested by centrifugation at 398 g for 15 min. Cell pellets are frozen at −80° C. until purification is performed.
All steps described in cell extraction and purification are performed at 4° C. Frozen Hi-5 cell pellets infected with the C-Met IC recombinant baculovirus are thawed and gently resuspended in Buffer A (20 mM Tris pH 8.0, 10% glycerol, 1 μg/ml pepstatin, 2 μg/ml Aprotinin and leupeptin, 50 μg/ml PMSF, 50 μg/ml TLCK and 10 μM E64, 0.5 mM DTT and 1 mM Levamisole) using 3 ml of buffer per gram of cells. The suspension is Dounce homogenized after which it is centrifuged at 22500 g, 30 min., 4° C. The supernatant (cell extract) is used as starting material for purification of c-Met IC.
The supernatant is loaded onto a QsepharoseFF column (Amersham Biosciences) equilibrated with Buffer B (20 mM Tris pH 8.0, 10% glycerol) supplemented with 0.05M NaCl. Following a ten column volume (CV) wash with equilibration buffer, bound proteins are eluted with a 5 CV salt linear gradient spanning from 0.05 to 1M NaCl in Buffer B. Typically, the conductivity of selected fractions rank between 6.5 and 37 mS/cm. This Qsepharose eluate has an estimated NaCl concentration of 0.33M and is supplemented with a 5M NaCl solution in order to increase NaCl concentration at 0.5M and also with a 5M Imidazole (pH 8.0) solution to achieve a final imidazole concentration of 15 mM. This material is loaded onto a HisTrap affinity column (GE Healthcare) equilibrated with Buffer C (50 mM NaPO4 pH 8.0, 0.5M NaCl, 10% glycerol) supplemented with 15 mM imidazole. After a 10 CV wash with equilibration buffer and an 8 CV wash with buffer C+40 mM imidazole, bound proteins are eluted with an 8 CV linear gradient (15 to 500 mM) of imidazole in buffer C. C-Met IC enriched fractions from this chromatography step are pooled based on SDS-PAGE analysis. This pool of enzyme undergoes buffer exchange using PD-10 column (GE Healthcare) against buffer D (25 mM HEPES pH 7.5, 0.1M NaCl, 10% glycerol and 2 mM β-mercaptoethanol). Final C-Met IC protein preparations concentrations are about 0.5 mg/ml with purity approximating 80%. Purified c-Met IC protein stocks are supplemented with BSA at 1 mg/ml, aliquoted and frozen at −80° C. prior to use in enzymatic assay.
Inhibition of c-Met/HGF receptor and VEGFR/KDR is measured in a DELFIA™ assay (Perkin Elmer). The substrate poly(Glu4,Tyr) is immobilized onto black high-binding polystyrene 96-well plates. The coated plates are washed and stored at 4° C. During the assay, enzymes are pre-incubated with inhibitor and Mg-ATP on ice in polypropylene 96-well plates for 4 minutes, and then transferred to the coated plates. The subsequent kinase reaction takes place at 30° C. for 10-30 minutes. ATP concentrations in the assay are 10 uM for C-Met (5× the Km) and 0.6 uM for VEGFR/KDR (2× the Km). Enzyme concentration is 25 nM (C-Met) or 5 nM (VEGFR/KDR). […]

In test [2] the target is T2, VEGF receptor KDR (Homo sapiens, UniProt P35968).
T2 construct: made in house; host or cells: Sf9 cells (Spodoptera frugiperda), recombinant baculovirus
T2 sequence (P35968 806-1356): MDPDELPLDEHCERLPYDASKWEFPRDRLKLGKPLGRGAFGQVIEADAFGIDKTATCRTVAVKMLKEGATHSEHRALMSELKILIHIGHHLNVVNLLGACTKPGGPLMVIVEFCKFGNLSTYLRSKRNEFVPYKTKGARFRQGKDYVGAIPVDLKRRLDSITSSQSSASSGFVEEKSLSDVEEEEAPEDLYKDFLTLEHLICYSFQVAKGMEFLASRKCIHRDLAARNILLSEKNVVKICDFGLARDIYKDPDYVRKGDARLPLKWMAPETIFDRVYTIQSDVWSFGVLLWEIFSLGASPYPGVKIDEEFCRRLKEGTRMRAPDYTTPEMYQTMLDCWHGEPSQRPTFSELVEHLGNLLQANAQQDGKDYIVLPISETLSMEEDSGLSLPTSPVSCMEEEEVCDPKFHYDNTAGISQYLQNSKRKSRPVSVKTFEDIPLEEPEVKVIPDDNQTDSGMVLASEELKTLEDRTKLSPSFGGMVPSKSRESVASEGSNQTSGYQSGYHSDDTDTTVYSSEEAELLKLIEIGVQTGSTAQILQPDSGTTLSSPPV
Briefly: In vitro receptor tyrosine kinase assay, VEGF receptor KDR (DELFIA). The format is biochemical. As to conditions: ATP 0.6 uM, enzyme 5 nM; read-out: Potency in enzyme assays VEGF.
From the text: as §1
In the case of VEGF receptor KDR a 1.6-kb cDNA corresponding to the catalytic domain of VEGFR2 or KDR (Genbank accession number AF035121 amino acid 806 to 1356) is cloned into the Pst I site of the pDEST20 Gateway vector (Invitrogen) for the production of a GST-tagged version of that enzyme. This construct is used to generate recombinant baculovirus using the Bac-to-Bac system according to the manufacturer's instructions (Invitrogen).
The GST-VEGFR2806-1356 protein is expressed in Sf9 cells (Spodoptera frugiperda) upon infection with recombinant baculovirus construct. Briefly, Sf9 cells grown in suspension and maintained in serum-free medium (Sf900 II supplemented with gentamycin) at a cell density of about 2×10^6 cells/ml are infected with the above-mentioned viruses at a multiplicity of infection (MOI) of 0.1 during 72 hours at 27° C. with agitation at 120 rpm on a rotary shaker. Infected cells are harvested by centrifugation at 398 g for 15 min. Cell pellets are frozen at −80° C. until purification is performed.
All steps described in cell extraction and purification are performed at 4° C. Frozen Sf9 cell pellets infected with the GST-VEGFR2806-1356 recombinant baculovirus re thawed and gently resuspended in Buffer A (PBS pH 7.3 supplemented with 1 μg/ml pepstatin, 2 μg/ml Aprotinin and leupeptin, 50 μg/ml PMSF, 50 μg/ml TLCK and 10 μM E64 and 0.5 mM DTT) using 3 ml of buffer per gram of cells. Suspension is Dounce homogenized and 1% Triton X-100 is added to the homogenate after which it is centrifuged at 22500 g, 30 min., 4° C. The supernatant (cell extract) is used as starting material for purification of GST-VEGFR2806-1356.
The supernatant is loaded onto a GST-agarose column (Sigma) equilibrated with PBS pH 7.3. Following a four column volume (CV) wash with PBS pH 7.3+1% Triton X-100 and 4 CV wash with buffer B (50 mM Tris pH 8.0, 20% glycerol and 100 mM NaCl), bound proteins are step eluted with 5 CV of buffer B supplemented with 5 mM DTT and 15 mM glutathion. GST-VEGFR2806-1356 enriched fractions from this chromatography step are pooled based on U.V. trace i.e. fractions with high O.D^-280- Final GST-VEGFR2806-1356 protein preparations concentrations are about 0.7 mg/ml with purity approximating 70%. Purified GST-VEGFR2806-1356 protein stocks are aliquoted and frozen at −80° C. prior to use in enzymatic assay.
Inhibition of c-Met/HGF receptor and VEGFR/KDR is measured in a DELFIA™ assay (Perkin Elmer). The substrate poly(Glu4,Tyr) is immobilized onto black high-binding polystyrene 96-well plates. The coated plates are washed and stored at 4° C. During the assay, enzymes are pre-incubated with inhibitor and Mg-ATP on ice in polypropylene 96-well plates for 4 minutes, and then transferred to the coated plates. The subsequent kinase reaction takes place at 30° C. for 10-30 minutes. ATP concentrations in the assay are 10 uM for C-Met (5× the Km) and 0.6 uM for VEGFR/KDR (2× the Km). Enzyme concentration is 25 nM (C-Met) or 5 nM (VEGFR/KDR). After incubation, the kinase reactions are quenched with EDTA and the plates are washed. Phosphorylated product is detected by incubation with Europium-labeled anti-phosphotyrosine MoAb. After washing the plates, bound MoAb is detected by time-resolved fluorescence in a Gemini SpectraMax reader (Molecular Devices). Compounds are evaluated over a range of concentrations and IC50's (concentration of compounds giving 50% inhibition of enzymatic activity) are determined.

In test [3] the test system is A549. Briefly: A549 wound healing inhibition. As to conditions: Homo sapiens; A549 cells; read-out: Potency in cell-based assays A549 wound healing inhibition.
Test [4] relates to DU145. Briefly: DU145 scattering inhibition. To be noted: Homo sapiens, DU-145; DU145 cells; read-out: Potency in cell-based assays DU145 scattering inhibition.

Some results are limits rather than exact numbers.

T1 sequence (P08581 1078-1337): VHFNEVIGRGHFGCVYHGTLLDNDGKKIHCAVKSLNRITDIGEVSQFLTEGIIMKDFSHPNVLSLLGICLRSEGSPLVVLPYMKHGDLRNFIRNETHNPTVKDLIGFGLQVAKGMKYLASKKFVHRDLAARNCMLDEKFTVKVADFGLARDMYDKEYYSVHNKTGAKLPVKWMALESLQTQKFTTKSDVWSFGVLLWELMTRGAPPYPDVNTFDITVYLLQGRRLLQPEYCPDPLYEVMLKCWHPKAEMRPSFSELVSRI

As to `O=C(Nc1cc(Oc2ccc(NC(=O)N3CCN(c4ccc(F)cc4)C3=O)cc2F)ccn1)N1CCCC1` [Compound 18b, N-(3-fluoro-4-(2-(pyrrolidine-1-carboxamido)pyridin-4-yloxy)phenyl)-3-(4-fluorophenyl)-2-oxoimidazolidine-1-carboxamide], the IC50 in test [1] was less than 0.25 µM; in test [2], less than 0.25 µM; in test [3], not below 1 µM; in test [4], not below 1 µM.
Turning to `O=C(Nc1ccc(Oc2ccnc(Nc3ccccc3)n2)c(F)c1)N1CCN(c2ccccc2)C1=O` [Compound 61a, N-(3-fluoro-4-(2-(phenylamino)pyrimidin-4-yloxy)phenyl)-2-oxo-3-phenyl-imidazolidine-1-carboxamide], the IC50 was 0.5 to 1 µM in test [1], not below 1 µM in test [2], 5 to 10 µM in test [3] and more than 10 µM in test [4].
For the compound `O=C(Nc1ccc(Oc2ccncc2)c(F)c1)N1CCN(c2ccccc2Cl)C1=O` [Compound 21h, 3-(2-chlorophenyl)-N-(3-fluoro-4-(pyridin-4-yloxy)phenyl)-2-oxoimidazolidine-1-carboxamide], the IC50 in test [1] is 0.5 to 1 µM; in test [2] it was not below 1 µM; in test [3] it was 1 to 5 µM; in test [4], not below 1 µM.
As for `CC(=O)Nc1ccc(Oc2cccc(NC(=O)N3CCN(c4ccccc4)C3=O)c2)cn1` [Compound 31a, N-(3-(6-acetamidopyridin-3-yloxy)phenyl)-2-oxo-3-phenylimidazolidine-1′-carboxamide], the IC50 is 0.25 to 0.5 µM in test [1], not below 1 µM in test [2], 1 to 5 µM in test [3] and 5 to 10 µM in test [4].
Turning to `O=C(Nc1ccc(Oc2ccnc(Nc3ccccc3)c2)c(F)c1)N1CCN(c2ccccc2)C1=O` [Compound 70, N-(3-fluoro-4-(2-(phenylamino)pyridin-4-yloxy)phenyl)-2-oxo-3-phenylimidazolidine-1-carboxamide], the IC50 in test [1] was less than 0.25 µM; in test [2], not below 1 µM; in test [3], 1 to 5 µM; in test [4], 5 to 10 µM.
The like results for `CN(C)CCCNC(=O)Nc1cc(Oc2ccc(NC(=O)N3CCN(c4ccccc4)C3=O)cc2F)ccn1` [Compound 18c, N-(4-(2-(3-(3-(dimethylamino)propyl)ureido)pyridin-4-yloxy)-3-fluorophenyl)-2-oxo-3-phenylimidazolidine-1-carboxamide] were, in that order, 0.5 to 1 µM, not below 1 µM, 1 to 5 µM and not below 1 µM.
